Assay results taken from ChEMBL document CHEMBL1201862, “PubChem BioAssay data set” (2004).
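In this assay, cells in 96-well plates receive the compound at five concentrations for 48 hours. Endpoints are linearly interpolated between the surrounding concentrations. At the GI50, growth is halved.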 Active and inactive are the calls of the source. Cut-off read from the data, not from the text of the source: active = GI50 up to about 1.1 µM and inactive = higher.

Tests used:
Assay in all cases: growth of human tumour cells (NCI), 48 h
HOP-92 = test system: HOP-92
DMS-273 = test system: DMS-273
T47D = test system: T47D
M14 = test system: M14
UACC-257 = test system: UACC-257
HOP-62 = test system: HOP-62
OVCAR-3 = test system: OVCAR-3
SNB-78 = test system: SNB-78
COLO 205 = test system: COLO 205
SN12C = test system: SN12C
Malme-3M = test system: Malme-3M
SW-620 = test system: SW-620
MDA-N = test system: MDA-N
RPMI-8226 = test system: RPMI-8226
XF498 = test system: XF498
SR = test system: SR
MDA-MB-435 = test system: MDA-MB-435
HL-60 = test system: HL-60
SF-268 = test system: SF-268
M19-MEL = test system: M19-MEL
DU-145 = test system: DU-145
HCC 2998 = test system: HCC 2998
SK-MEL-2 = test system: SK-MEL-2
SK-OV-3 = test system: SK-OV-3
CAKI-1 = test system: CAKI-1
786-0 = test system: 786-0
SF-539 = test system: SF-539
NCI-H460 = test system: NCI-H460
DLD-1 = test system: DLD-1
SK-MEL-28 = test system: SK-MEL-28
A549 = test system: A549
RXF 393 = test system: RXF 393
KM12 = test system: KM12
HOP-18 = test system: HOP-18
MDA-MB-231 = test system: MDA-MB-231
MOLT-4 = test system: MOLT-4
TK-10 = test system: TK-10
NCI-H226 = test system: NCI-H226
MCF7 = test system: MCF7
RXF 631 = test system: RXF 631
NCI/ADR-RES = test system: NCI/ADR-RES
LXFL 529 = test system: LXFL 529
OVCAR-4 = test system: OVCAR-4
EKVX = test system: EKVX
OVCAR-8 = test system: OVCAR-8
K562 = test system: K562
HT-29 = test system: HT-29
SNB-75 = test system: SNB-75
SNB-19 = test system: SNB-19
CCRF-CEM = test system: CCRF-CEM
IGROV-1 = test system: IGROV-1
OVCAR-5 = test system: OVCAR-5
SF-295 = test system: SF-295
ACHN = test system: ACHN
HCT-15 = test system: HCT-15
PC-3 = test system: PC-3
KM-20L2 = test system: KM-20L2
DMS-114 = test system: DMS-114
SK-MEL-5 = test system: SK-MEL-5
NCI-H23 = test system: NCI-H23
HCT-116 = test system: HCT-116
UO-31 = test system: UO-31
UACC-62 = test system: UACC-62
NCI-H522 = test system: NCI-H522
LOX IMVI = test system: LOX IMVI
U-251 = test system: U-251
A498 = test system: A498

Compound: CC(C)CCCCCCCCCCCCC(=O)NCC(=O)NC1C(C)OC(Nc2[nH]cnc3ncnc2-3)C(O)C1O (centres undefined)
- GI50 (HOP-92): 0.28 nM (active)
- GI50 (DMS-273): < 10 nM (active)
- GI50 (T47D): 2.35 nM (active)
- GI50 (M14): 0.487 nM (active)
- GI50 (UACC-257): < 10 nM (active)
- GI50 (HOP-62): 0.361 nM (active)
- GI50 (OVCAR-3): 0.173 nM (active)
- GI50 (SNB-78): 0.646 nM (active)
- GI50 (COLO 205): 0.622 nM (active)
- GI50 (SN12C): 2.14 nM (active)
- GI50 (Malme-3M): 0.332 nM (active)
- GI50 (SW-620): 1.01 nM (active)
- GI50 (MDA-N): < 10 nM (active)
- GI50 (RPMI-8226): 0.568 nM (active)
- GI50 (XF498): < 10 nM (active)
- GI50 (SR): 1.53 nM (active)
- GI50 (MDA-MB-435): 5.71 nM (active)
- GI50 (HL-60): 0.746 nM (active)
- GI50 (SF-268): 0.635 nM (active)
- GI50 (M19-MEL): < 10 nM (active)
- GI50 (DU-145): 2.2 nM (active)
- GI50 (HCC 2998): 0.331 nM (active)
- GI50 (SK-MEL-2): 3.85 nM (active)
- GI50 (SK-OV-3): < 10 nM (active)
- GI50 (CAKI-1): < 10 nM (active)
- GI50 (786-0): 0.491 nM (active)
- GI50 (SF-539): 0.931 nM (active)
- GI50 (NCI-H460): 0.158 nM (active)
- GI50 (DLD-1): 10 nM (active)
- GI50 (SK-MEL-28): < 10 nM (active)
- GI50 (A549): 1.28 nM (active)
- GI50 (RXF 393): < 10 nM (active)
- GI50 (KM12): 0.341 nM (active)
- GI50 (HOP-18): < 10 nM (active)
- GI50 (MDA-MB-231): < 10 nM (active)
- GI50 (MOLT-4): 1.02 nM (active)
- GI50 (TK-10): 1.02 nM (active)
- GI50 (NCI-H226): 2.4 nM (active)
- GI50 (MCF7): < 10 nM (active)
- GI50 (RXF 631): 0.0354 nM (active)
- GI50 (NCI/ADR-RES): 2.21 nM (active)
- GI50 (LXFL 529): 0.588 nM (active)
- GI50 (OVCAR-4): 0.98 nM (active)
- GI50 (EKVX): 5.75 nM (active)
- GI50 (OVCAR-8): 0.153 nM (active)
- GI50 (K562): 6.44 nM (active)
- GI50 (HT-29): 1.25 nM (active)
- GI50 (SNB-75): 0.535 nM (active)
- GI50 (SNB-19): 2.1 nM (active)
- GI50 (CCRF-CEM): 4.8 nM (active)
- GI50 (IGROV-1): 0.782 nM (active)
- GI50 (OVCAR-5): 1.23 nM (active)
- GI50 (SF-295): 2.34 nM (active)
- GI50 (ACHN): 0.468 nM (active)
- GI50 (HCT-15): < 24.7 nM
- GI50 (PC-3): 4.33 nM (active)
- GI50 (KM-20L2): < 10 nM (active)
- GI50 (DMS-114): < 31.6 nM (active)
- GI50 (SK-MEL-5): 2.89 nM (active)
- GI50 (NCI-H23): 5.36 nM (active)
- GI50 (HCT-116): 0.244 nM (active)
- GI50 (UO-31): 0.381 nM (active)
- GI50 (UACC-62): < 10 nM (active)
- GI50 (NCI-H522): 2.73 nM (active)
- GI50 (LOX IMVI): 0.262 nM (active)
- GI50 (U-251): 0.425 nM (active)

Compound: CCCCN(CCCC)CC(C(=O)Nc1ccc([N+](=O)[O-])cc1[N+](=O)[O-])/C(C)=N\NC(=O)C[N+](C)(C)C (centres undefined)
- GI50 (HOP-92): 33000 nM (inactive)
- GI50 (DMS-273): 15900 nM (inactive)
- GI50 (M14): > 100000 nM (inactive)
- GI50 (UACC-257): > 100000 nM (inactive)
- GI50 (HOP-62): > 100000 nM (inactive)
- GI50 (OVCAR-3): > 100000 nM (inactive)
- GI50 (SNB-78): 97700 nM (inactive)
- GI50 (COLO 205): 35700 nM (inactive)
- GI50 (SN12C): > 100000 nM (inactive)
- GI50 (Malme-3M): > 100000 nM (inactive)
- GI50 (RPMI-8226): 27700 nM (inactive)
- GI50 (XF498): 39300 nM (inactive)
- GI50 (SR): 25100 nM (inactive)
- GI50 (HL-60): > 100000 nM (inactive)
- GI50 (SF-268): > 100000 nM (inactive)
- GI50 (M19-MEL): > 100000 nM (inactive)
- GI50 (HCC 2998): > 100000 nM (inactive)
- GI50 (SK-MEL-2): > 100000 nM (inactive)
- GI50 (SK-OV-3): > 100000 nM (inactive)
- GI50 (CAKI-1): 42700 nM (inactive)
- GI50 (786-0): > 100000 nM (inactive)
- GI50 (SF-539): > 100000 nM (inactive)
- GI50 (NCI-H460): 55700 nM (inactive)
- GI50 (DLD-1): 69300 nM (inactive)
- GI50 (SK-MEL-28): > 100000 nM (inactive)
- GI50 (A549): > 100000 nM (inactive)
- GI50 (RXF 393): 92700 nM (inactive)
- GI50 (KM12): > 100000 nM (inactive)
- GI50 (HOP-18): 78900 nM (inactive)
- GI50 (MOLT-4): > 100000 nM (inactive)
- GI50 (TK-10): > 100000 nM (inactive)
- GI50 (NCI-H226): > 100000 nM (inactive)
- GI50 (RXF 631): 69200 nM (inactive)
- GI50 (LXFL 529): 74000 nM (inactive)
- GI50 (OVCAR-4): > 100000 nM (inactive)
- GI50 (EKVX): 30300 nM (inactive)
- GI50 (OVCAR-8): > 100000 nM (inactive)
- GI50 (K562): 28800 nM (inactive)
- GI50 (HT-29): 75900 nM (inactive)
- GI50 (SNB-75): 29000 nM (inactive)
- GI50 (SNB-19): > 100000 nM (inactive)
- GI50 (CCRF-CEM): 41800 nM (inactive)
- GI50 (IGROV-1): > 100000 nM (inactive)
- GI50 (OVCAR-5): > 100000 nM (inactive)
- GI50 (SF-295): > 100000 nM (inactive)
- GI50 (ACHN): > 100000 nM (inactive)
- GI50 (HCT-15): 46800 nM
- GI50 (KM-20L2): > 100000 nM (inactive)
- GI50 (DMS-114): 31600 nM (inactive)
- GI50 (SK-MEL-5): > 100000 nM (inactive)
- GI50 (NCI-H23): > 100000 nM (inactive)
- GI50 (HCT-116): 69500 nM (inactive)
- GI50 (UO-31): 66500 nM (inactive)
- GI50 (UACC-62): > 100000 nM (inactive)
- GI50 (NCI-H522): 41900 nM (inactive)
- GI50 (LOX IMVI): 33300 nM (inactive)
- GI50 (U-251): > 100000 nM (inactive)
- GI50 (A498): 52700 nM (inactive)
